This is an account of results in patent publication US11180518B2, “Phenyl-heterocycle-phenyl derivatives for use in the treatment or prevention of melanoma” (MAX-PLANCK-GESELLSCHAFT ZUR FÖRDERUNG DER WISSENSCHAFTEN …, priority 2017, dated 2021).

Series [1] has as its system WM983-B melanoma cells. Kind of series: Mitochondrial membrane potential (MitoTracker Red CMXRos). It counts as cell-based, human. As to conditions: single 10 μM dose, as early as 24 hr. On the procedure: (§1) Mitochondrial membrane potential. Melanoma cell lines WM983-B, SK-MEL-5 and WM1158 were treated with anle138b or received DMSO only for 24 or 48 hr. Prior to fixation with 3.7% PFA, the cells were incubated with 200 nM MitoTracker Red CMXRos (Thermo Fisher Scientific, Inc.) for 30 min at 37° C. Confocal image stacks were captured with a 63×NA 1.2 Apochromat water immersion lens on a Zeiss LSM 510 Meta confocal microscope in fluorescence and transmission modes.

The test system of series [2] is WM1158 melanoma cells. The description is as above. Particulars: 10 μM, only after 48 hr. It counts as cell-based, human. On the procedure:
as §1

A further series concerns SK-MEL-5 melanoma cells. The series is described as above. It is filed as cell-based, human. Particulars: single 10 μM dose, as early as 24 hr. How it is done: as §1
Series [3] concerns autophagy markers, LC3 and p62/SQSTM1. Particulars: mouse, in vivo; cited from earlier work.
Series [4] deals with WM1158 melanoma cells. In words: Melanoma cell proliferation analysis. It is filed as cell-based, human. From the text:
(§2) To assess the possible impact of anle138b as well as anle138c on the different melanoma cell lines, WM983-A, WM983-B and SK-MEL-5, we treated them with increasing doses of either compound, dissolved in dimethyl sulfoxide (DMSO), and added to serum-free culture medium. […] We also observed that treatment with anle138b caused a more rapid morphological change than anle138c. To determine whether the effect of the two anle compounds was related to the amount of α-synuclein produced by the cells, we compared the proliferation of the (VGP) WM983-A high-level and the (RGP/VGP) WM1158 low-level α-synuclein-producing melanoma cells over a period of 96 hr, with replenishment of each anle compound at 48 hr (FIGS. 8A and B).
10 or 30 mM stock solutions of anle138b or anle138c were made in DMSO. Since anle138b as well as anle138c bind strongly to FBS, melanoma cells, plated for 24 hr in tissue-culture medium containing 10% FBS, were rinsed three times with serum-free medium prior to addition of anle138b, anle138c, or an equivalent volume of DMSO only in serum-free medium. Forty-eight hours later, the cell culture medium was removed, followed by addition of an equivalent dose of anle138b or anle138c, or DMSO only in serum-free culture medium. […] Proliferation of melanoma cells that had received DMSO only, or were treated with anle138b was determined by counting the cells with a hemocytometer.

The nature of the next series: Binding to FBS. It counts as in vitro ADME.
Series [5] relates to high-level α-synuclein expressing cell lines WM983-B. Kind of series: Initial screen of sixteen compounds from the DPP library. It is filed as cell-based, human.
The test system of another series is WM983-A melanoma cells. Kind of series: Melanoma cell proliferation analysis (hemocytometer counting). It counts as cell-based, human.
Excerpt: as §2
To compare how rapidly anle138b affected the proliferation of melanoma cells, expressing α-synuclein at a high level, we treated the melanoma cell lines, WM983-A (VGP) and WM983-B (MGP), for 24, 48 or 72 hr with 10 μM of anle138b, with replenishment of the compound (10 μM) at 48 hr.
10 or 30 mM stock solutions of anle138b or anle138c were made in DMSO. […] Proliferation of melanoma cells that had received DMSO only, or were treated with anle138b was determined by counting the cells with a hemocytometer.

Series [6] deals with WM983-B melanoma cells. Kind of series: Immunoblot analysis of p62/SQSTM1 expression. Particulars: 7.5 μM. It counts as cell-based, human. On the procedure: For the analysis of p62/SQSTM1 protein expression, WM983-B melanoma whole-cell lysates were separated on 12% SDS-PAGE, transferred onto nitrocellulose membrane, blocked with 3% bovine serum albumin (BSA), probed with an anti-p62/SQSTM1 antibody (Cell Signaling Technology, Inc. Danvers, Mass., USA), followed by incubation with a corresponding HPR-conjugated secondary antibody and chemiluminescent substrate (EMD Millipore, Billerica, Mass., USA). Protein loading was determined by secondary probing with an anti-GAPDH antibody (Thermo Fisher Scientific Inc.).
(In general: A western blot detects proteins with antibodies after separation by electrophoresis.)

Entries after “also recorded” stand apart in the source; their conditions may differ.

In the case of `Brc1cccc(-c2cc(-c3ccc4c(c3)OCO4)n[nH]2)c1` [anle138b, 5-(3-Bromophenyl)-3-(3,4-methylenedioxyphenyl)-1H-pyrazole], the mitochondrial membrane potential result in the series on WM983-B melanoma cells [1] was “significantly reduced”; with WM1158 melanoma cells [2], “some reduction”; in the series with SK-MEL-5 melanoma cells, “significantly reduced”. Moreover, the “level of the autophagy markers, LC3 and p62/SQSTM1” value in series [3] is “did not change”. Besides, the proliferation result in the series on WM1158 melanoma cells [4] (over 96 hr, replenishment at 48 hr) is “reduced proliferation only after 48 hr”; with WM983-A melanoma cells (single dose of 10 μM, 24 hr), “inhibited the proliferation of both cell lines to a significant extent”. In addition, the “recovery of proliferation after removal of compound” value in the series with WM1158 melanoma cells [4] (removal at 96 hr, fresh culture medium containing serum) is “able to recover proliferation normally”. Besides, in “Binding to FBS”, the “binding to FBS” value is listed as “bind strongly”. Also, the “effect on WM983-B cells in initial screen” value in [5] was “significantly affected; also recorded: strongest and most rapid effect”. The “proliferation of residual cells after removal of compound” value in the series on WM983-A melanoma cells (removal of compound-containing medium at 96 hr, then serum-free medium) is “not able to proliferate again”. The p62/SQSTM1 expression result with WM983-B melanoma cells [6] (48 and 72 hr, replenishment at 48 hr, vs DMSO only) was “noticeably elevated”; with WM983-B melanoma cells [6] (24 hr) it was “did not lead to an increase”.
